The values below are quoted from earlier work in patent publication US20140093563A1, “FEBUXOSTAT COMPOSITIONS” (RANBAXY LABORATORIES LIMITED, priority 2011, published 2014).

Turning to `Cc1nc(-c2ccc(OCC(C)C)c(C#N)c2)sc1C(=O)O` [febuxostat, 2-(3-cyano-4-isobutyloxyphenyl)-4-methyl-5-thiazolecarboxylic acid], the “Solubility (BCS)” value is “low solubility”.
